These results are taken from patent US7547700B2, “Aryl-[4-halo-4(heteroarylmethylamino)-methyl]-piperidin-1-1yl]-methanone derivatives, methods for production and use thereof as medicaments” (PIERRE Fabre Medicament, priority 2002, dated 2009).

Each structure is given as a SMILES string. Bounds are passed on as bounds.

In assay [1] the target is T1, dopaminergic D2 receptors (Rattus norvegicus, UniProt P61169).
T1 construct: For these experiments, rat striatum is used; from tissue; host or cells: rat striatum homogenate
T1 sequence (P61169 whole entry): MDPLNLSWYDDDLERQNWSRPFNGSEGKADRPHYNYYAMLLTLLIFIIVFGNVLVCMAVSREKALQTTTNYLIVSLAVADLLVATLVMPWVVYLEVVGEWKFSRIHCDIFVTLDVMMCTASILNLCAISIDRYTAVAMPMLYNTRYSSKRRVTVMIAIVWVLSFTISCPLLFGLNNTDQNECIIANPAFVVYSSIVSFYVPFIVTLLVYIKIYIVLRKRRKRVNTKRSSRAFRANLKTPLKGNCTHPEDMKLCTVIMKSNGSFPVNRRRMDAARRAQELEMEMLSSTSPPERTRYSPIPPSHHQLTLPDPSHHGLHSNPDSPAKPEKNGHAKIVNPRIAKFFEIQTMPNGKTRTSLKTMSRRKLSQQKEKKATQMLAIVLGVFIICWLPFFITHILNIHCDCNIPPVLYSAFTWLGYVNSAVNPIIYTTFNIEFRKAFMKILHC
In words: Affinity for the D2 receptors, displacement of [3H]YM-09151-2. The assay is classed as binding. Conditions: rat striatum, [3H]YM-09151-2 displacement, mean of at least 3 experiments; read-out: D2 pKi (converted). As to the method: Measurement of the affinity of the compounds of the invention for the D2 receptors
For these experiments, rat striatum is used. After thawing the brain in Tris-HCl buffer (50 mmol, pH=7.4) at 25° C., the striatum is removed and homogenized in 40 volumes of buffer maintained at 4° C. The homogenate is centrifuged at 20 000×g for 10 minutes, and the centrifugation pellet is suspended in the same volume of buffer and recentrifuged. The final pellet is suspended in cold Tris-HCl reaction buffer at 25° C. containing 120 mmol of NaCl and 5 mmol of KCl. The final concentration of tissue in the incubation medium is 2 mg/tube. […] The nonspecific binding is defined by using […] of (+)-butaclamol. The reaction tubes are incubated at 23° C. for 60 minutes and their content is then rapidly filtered through Whatman GF/B filters, and the tubes are rinsed twice with 5 ml of Tris-HCl buffer at 25° C. The radioactivity collected on the filter is analyzed by liquid scintillation, by adding 4 ml of scintillant liquid (Emulsifier Safe, Packard). All the experiments are performed in triplicate.

For assay [2], the target named is T2, 5-HT1A receptors (Homo sapiens, UniProt P08908).
T2 construct: Gibco Biocult; Laboratory, Paisley UK; host or cells: unspecified cells; membrane preparation
T2 sequence (P08908 1-422): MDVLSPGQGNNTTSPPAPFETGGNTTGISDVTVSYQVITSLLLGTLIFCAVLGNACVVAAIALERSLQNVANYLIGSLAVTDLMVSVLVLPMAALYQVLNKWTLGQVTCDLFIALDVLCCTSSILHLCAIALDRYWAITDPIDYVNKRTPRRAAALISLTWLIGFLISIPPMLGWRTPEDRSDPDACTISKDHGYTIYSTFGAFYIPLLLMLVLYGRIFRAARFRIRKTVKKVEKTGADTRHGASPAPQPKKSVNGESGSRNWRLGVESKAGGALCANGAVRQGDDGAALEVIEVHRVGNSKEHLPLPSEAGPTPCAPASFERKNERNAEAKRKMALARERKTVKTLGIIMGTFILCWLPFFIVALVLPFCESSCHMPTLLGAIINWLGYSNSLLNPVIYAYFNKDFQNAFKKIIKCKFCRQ
In words: Efficacy: stimulation of [35S]GTPγS binding in a cell membrane preparation. The format is biochemical. The following applies: [35S]GTPγS binding, maximum stimulation defined with serotonin (10 μmmol); read-out: % stimulation Maximum effect. The method, then: Measurement of the Efficacy of the Compounds of the Invention
The cells (Gibco Biocult. Laboratory, Paisley UK) are collected in phosphate buffer (pH=7.4) and centrifuged at 48 000 g for 20 minutes. The centrifugation pellet is homogenized in Hepes (20 mmol, pH=7.4) containing EDTA (10 mmol) and recentrifuged at 48 000×g for 10 minutes. The centrifugation pellet is washed twice in Hepes (10 mmol, pH=7.4) containing EDTA (0.1 mmol). The pellet is stored at −80° C. in portions of 600 to 750 μg of protein. […] The incubation medium contains 0.4 ml of membrane preparation and 0.05 ml of test compound. After incubation for 30 minutes at 25° C., 0.05 ml of [^35S]GTPγS (500 picomol), ([^35S]GTPγS (1100 Ci/mmol), Amersham, Les Ulis France), is added and the mixture incubated for 30 minutes. The reactions are quenched by addition of 3 ml of ice-cold Hepes (20 mmol) containing 3 mmol of MgCl2 and rapid filtration through Whatman GF/B filters. The tubes are rinsed 3 times with 5 ml of Hepes buffer at 25° C. The radioactivity collected on the filter is analyzed by liquid scintillation by adding 4 ml of scintillant liquid (Emulsifier Safe, Packard). […] All the experiments are performed in triplicate.
In general terms: Binding of GTPγS marks nucleotide exchange on a G protein.

The target of assay [3] is T3, 5-HT1A receptors (Rattus norvegicus, UniProt P19327).
T3 construct: For these experiments, rat cerebral cortices are used; from tissue; host or cells: rat cerebral cortex homogenate
T3 sequence (P19327 1-422): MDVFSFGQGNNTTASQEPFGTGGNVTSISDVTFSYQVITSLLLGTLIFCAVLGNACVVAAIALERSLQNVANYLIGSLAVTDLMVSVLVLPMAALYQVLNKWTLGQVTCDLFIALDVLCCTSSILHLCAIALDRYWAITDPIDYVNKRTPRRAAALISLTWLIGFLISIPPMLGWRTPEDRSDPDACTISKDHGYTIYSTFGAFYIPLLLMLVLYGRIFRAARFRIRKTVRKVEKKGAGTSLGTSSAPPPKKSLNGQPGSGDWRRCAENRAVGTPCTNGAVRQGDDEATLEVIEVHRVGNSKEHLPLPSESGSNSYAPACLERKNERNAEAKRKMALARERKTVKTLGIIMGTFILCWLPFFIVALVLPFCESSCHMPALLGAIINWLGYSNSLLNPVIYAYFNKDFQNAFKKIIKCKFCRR
Put plainly: Affinity for the 5-HT1A receptors, displacement of [3H]8-OH-DPAT. The assay is classed as binding. As to the method:
Measurement of the affinity of the compounds in the invention for the 5-HT1A receptors
For these experiments, rat cerebral cortices are used. After thawing the brain in Tris-HCl buffer (50 mmol, pH=7.4) at 25° C., the cerebral cortex is removed and homogenized in 20 volumes of buffer maintained at 4° C. The homogenate is centrifuged at 39 000×g for 10 minutes, and the centrifugation pellet is suspended in the same volume of buffer and recentrifuged. After resuspending under the same conditions, the homogenate is incubated for 10 minutes at 37° C. and then recentrifuged. The final pellet is suspended in cold Tris-HCl reaction buffer (50 mmol) at 25° C. containing […] of pargyline, 4 mmol of CaCl2 and 0.10% of ascorbic acid. The final concentration of tissue in the incubation medium is 10 mg/tube.
The nonspecific binding is defined by using […] of serotonin. The reaction tubes are incubated at 23° C. for 30 minutes and their content is then rapidly filtered under vacuum through Whatman GF/B filters, and the tubes are rinsed with twice 5 ml of tris-HCl buffer at 25° C. The radio-activity collected on the filter is analyzed by liquid scintillation, by adding 4 ml of scintillant liquid (Emulsifier Safe, Packard, Warrenville, USA). All the experiments are performed in triplicate.
In general terms: Loss of bound radioactivity is the signal in a displacement assay; it reports binding, not function.

As to `Cc1ccc(CNCC2(Cl)CCN(C(=O)c3ccc(F)c(Cl)c3)CC2)nc1` [Compound 1-9, (3-chloro-4-fluorophenyl)-(4-chloro-4-{[(5-methylpyridin-2-ylmethyl)amino]-methyl}piperidin-1-yl)methanone], the values for the Ki (in assay [1]; at 5-HT1A receptors [3] (read-out: 5-HT1A pKi (converted))) were over 10000 nM and 0.794 nM, respectively. The Emax on 5-HT1A receptors [2] was determined as 100%. In addition, the “Selectivity 5-HT1A/D2” value on 5-HT1A receptors [3] (ratio of 5-HT1A to D2 affinity) was over 1000.
